The record followed here is PMC6650905, “Development of a Novel Series of Anticancer and Antidiabetic: Spirothiazolidines Analogs” (Molecules, 2019).

The target in assay [1] is T1, alpha-amylase (α–amylase).
T1 construct: commercial preparation from Sigma-Aldrich
Kind of assay: DNS colorimetric assay. The class given is biochemical. Conditions: starch 0.5%, 20 mM phosphate pH 6.9, 25 °C, 10 min preincubation.

Assay [2] addresses T2, alpha-glucosidase (Saccharomyces cerevisiae).
T2 construct: gene MAL12; commercial preparation from Sigma-Aldrich
Kind of assay: p-nitrophenol release, absorbance […] nm. It is filed as biochemical. Conditions: p-nitrophenyl alpha-D-glucopyranoside 5 mM stock (20 μL), 100 mM phosphate pH 6.8, 37 °C, 15 min preincubation.

As to `N#Cc1c(N)nc2c(c1-c1ccc(Cl)cc1)SC1(CCCCC1)N2c1ccc(N)cc1` [compound 6, 5′-amino-3′-(4-aminophenyl)-7′-(4-chlorophenyl)-3′H-spiro[cyclohexane-1,2′-thiazolo[4,5-b]pyridine]-6′-carbonitrile], the entries for the “** IC50” value in assay [1] and in assay [2] were 94.9 µg/mL and 63.6 µg/mL, respectively.

With `Nc1ccc(N2C(=O)CSC23CCCCC3)cc1` [compound 1, 4-(4-aminophenyl)-1-thia-4-azaspiro[4.5]decan-3-one], the “** IC50” value is 297.8 µg/mL in assay [1] and 120.22 µg/mL in assay [2].

In the case of `NN=C1CSC2(CCCCC2)N1c1ccc(N)cc1` [compound 2, 4-(3-hydrazono-1-thia-4-azaspiro[4.5]decan-4-yl)aniline], the “** IC50” value stood at 421.42 µg/mL in assay [1] and 363.67 µg/mL in assay [2].

In the case of `N#Cc1c(-c2ccc(Cl)cc2)c2c([nH]c1=O)N(c1ccc(N)cc1)C1(CCCCC1)S2` [compound 7, 3′-(4-aminophenyl)-7′-(4-chlorophenyl)-5′-oxo-4′,5′-dihydro-3′H-spiro[cyclohexane-1,2′-thiazolo[4,5-b]pyridine]-6′-carbonitrile], the “** IC50” value in assay [1] is listed as 239.37 µg/mL; in assay [2] it was 117.36 µg/mL.

Turning to `Nc1ccc(N2C(=O)C(=Cc3ccc(Cl)cc3)SC23CCCCC3)cc1` [compound 8, 4-(4-aminophenyl)-2-(4-chlorobenzylidene)-1-thia-4-azaspiro[4.5]decan-3-one], the entries for the “** IC50” value in assay [1] and in assay [2] were 199.01 µg/mL and 114.45 µg/mL, respectively.

As to `Nc1ccc(N2c3[nH]nc(-c4ccc(Cl)cc4)c3SC23CCCCC3)cc1` [compound 9, 4-(3′-(4-chlorophenyl)-spiro[cyclohexane-1,5′-pyrazolo[3,4-d]thiazol]-6′ (1′H)-yl)aniline], the entries for the “** IC50” value in assay [1] and in assay [2] were 58.85 µg/mL and 52.47 µg/mL, respectively.

`N#Cc1c(-c2ccc(Cl)cc2)c2c(n(CCO)c1=O)N(c1ccc(N)cc1)C1(CCCCC1)S2` [compound 13, 3′-(4-aminophenyl)-7′-(4-chlorophenyl)-4′-(2-hydroxyethyl)-5′-oxo-4′,5′-dihydro-3′H-spiro[cyclohexane-1,2′-thiazolo[4,5-b]pyridine]-6′-carbonitrile]: the results for the “** IC50” value in assay [1] and in assay [2] were 271.3 µg/mL and 118.11 µg/mL, respectively.

Turning to `CCOC(=O)Cn1c2c(c(-c3ccc(Cl)cc3)c(C#N)c1=O)SC1(CCCCC1)N2c1ccc(N)cc1` [compound 16, Ethyl 2-(3′-(4-aminophenyl)-7′-(4-chlorophenyl)-6′-cyano-5′-oxo-3′,5′-dihydro-4′H-spiro [cyclohexane-1,2′-thiazolo[4,5-b]pyridin]-4′-yl)acetate], the results for the “** IC50” value in assay [1] and in assay [2] were greater than 1000 µg/mL and 570.4 µg/mL, respectively.
